Earlier results on 3 compounds are cited in US9180090B2, “Non-sedating antihistamine injection formulations and methods of use thereof” (JDP THERAPEUTICS, INC., priority 2009, dated 2015).

Each structure is given as a SMILES string.

For data set [1] the following is noted: oral.
The conditions of data set [2]: for Major (potential drug interactions) / Minor (potential drug interactions) / Moderate (potential drug interactions): number of interactions per drugs.com.

`Clc1ccc2c(c1)CCc1cccnc1C2=C1CCNCC1` [desloratadine]: in data set [1] (single dose), the “AUC0-24 (single dose)” value is reported as “AUC0-24 (single dose) = about 34.2 ng · hr/mL” and the “AUC(single dose)0-inf” value was “AUC(single dose)0-inf = about 35.6 ng/hr/mL”. Besides, in data set [1] (steady state), the AUCss result is given as “AUCss = about 56.9 ng · hr/mL”.
For `O=C(O)COCCN1CCN(C(c2ccccc2)c2ccc(Cl)cc2)CC1` (racemic) [Cetirizine, (±)-[2-[4-[(4-chlorophenyl)phenylmethyl]-1-piperazinyl]ethoxy]acetic acid], in data set [2], the “Major (potential drug interactions)” value is on record as 0, the “Minor (potential drug interactions)” value is given as 5 and the “Moderate (potential drug interactions)” value was 568. Besides, the Disease state interaction result in data set [2] (per drugs.com) is on record as “Renal/Liver Disease”.
As to `OCCOCCN1CCN(C(c2ccccc2)c2ccc(Cl)cc2)CC1` (racemic) [Hydroxyzine], in data set [2], the “Major (potential drug interactions)” value is recorded as 17, the “Minor (potential drug interactions)” value is 6 and the “Moderate (potential drug interactions)” value is reported as 622.
